Test results: patent US7531573B2 (priority 1994, dated 2009)
Read-outs that look alike come from different tables or passages of the source.

Legend:
[1] = system: NIH 3T3 mouse fibroblast cells; test: Mitogen-induced cell proliferation; assay type: cell-based; conditions: for inhibition at 10 µM: NIH3T3, read-out: Mitogen-induced cell proliferation % Inhibition; for IC50: NIH3T3, read-out: Mitogen-induced cell proliferation IC50
From the text: Other cell lines, e.g., cancer cells, endothelial cells and fibroblasts, as well as many others, may be used in the cell proliferation assay. Selection of a particular cell line will depend in part on the desired application, and is well within the capabilities of an ordinarily skilled artisan.

[2] = biological target: Gardos channel of erythrocytes (Homo sapiens, UniProt O15554); test: cell-based; conditions: for inhibition at 10 µM: read-out: Gardos Channel % Inhibition
clinical = assay type: in vivo; conditions: human, in vivo, read-out: Levels Plasma; for concentration at 6 day of CLT dosing: CLT day 6; for concentration at 10 day (wash-out): Wash-out day 10; for concentration at 13 day (wash-out): Wash-out day 13; for concentration at 20 day (wash-out): Wash-out day 20
[3] = erythrocytes, read-out: Gardos Channel IC50
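Wherever Levels Plasma is given: oral tablet given every 12 h for six days, about 14 mg/kg per day for this subject, with levels then followed in plasma.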

Chain of Gardos channel of erythrocytes (O15554 whole entry): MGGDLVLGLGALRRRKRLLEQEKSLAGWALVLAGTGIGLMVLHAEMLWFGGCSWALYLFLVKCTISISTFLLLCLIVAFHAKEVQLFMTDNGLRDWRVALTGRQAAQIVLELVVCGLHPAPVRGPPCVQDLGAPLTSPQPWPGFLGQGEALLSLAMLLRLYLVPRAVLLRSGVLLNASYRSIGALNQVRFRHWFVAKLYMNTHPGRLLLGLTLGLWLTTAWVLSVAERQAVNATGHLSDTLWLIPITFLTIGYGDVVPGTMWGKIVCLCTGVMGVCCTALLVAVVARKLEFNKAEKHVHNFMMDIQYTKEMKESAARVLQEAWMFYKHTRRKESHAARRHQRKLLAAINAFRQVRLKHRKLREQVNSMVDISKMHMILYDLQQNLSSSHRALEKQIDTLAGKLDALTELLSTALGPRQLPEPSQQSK

| SMILES | melting point [°C] | inhibition at 10 µM [1] [%] | IC50 [1] [nM] | IC50 [2, 3] [nM] | inhibition at 10 µM [2] [%] | IC50 [2] [nM] | also measured |
| --- | --- | --- | --- | --- | --- | --- | --- |
| O=CC(c1ccccc1)(c1ccccc1)c1ccccc1Cl [Compound 15, 2-chlorophenyl-diphenylacetaldehyde] | 126 to 129 | 88.6 | 2600 | 96.8 | 100 | – | – |
| O=CC(c1ccccc1)(c1ccccc1)c1ccccc1 [Compound 16, triphenylacetaldehyde] | 91 to 96 | 99.4 | 400 to 2000 | 87 | 98 | – | – |
| Clc1ccccc1C(c1ccccc1)c1ccccc1 [Compound 17, 2-chlorophenyl-diphenylmethane] | 74 to 76 | 91.8 | 3900 | – | 100 | 860 | concentration at 6 day of CLT dosing (clinical; 500 mg, Subject A): 1800 nM; concentration at 6 day (wash-out) (clinical; 500 mg, Subject A, Wash-out day 6): < 100 nM; concentration at 10 day (wash-out) (clinical; 500 mg, Subject A): < 100 nM; concentration at 13 day (wash-out) (clinical; 500 mg, Subject A): 0 nM; concentration at 20 day (wash-out) (clinical; 500 mg, Subject A): 0 nM; concentration at 3 day of CLT dosing (clinical; 500 mg, Subject B, CLT day 3): 1650 nM; concentration at 6 day of CLT dosing (clinical; 500 mg, Subject B): 2500 nM; concentration at 8 day (wash-out) (clinical; 500 mg, Subject B, Wash-out day 8): < 100 nM; concentration at 10 day (wash-out) (clinical; 500 mg, Subject B): < 100 nM; concentration at 13 day (wash-out) (clinical; 500 mg, Subject B): 0 nM; concentration at 20 day (wash-out) (clinical; 500 mg, Subject B): 0 nM; concentration at 3 day of CLT dosing (clinical; Subject A, CLT day 3, oral CLT 500 mg every twelve hours): 700 nM |
| NC(=O)CC(c1ccc(Cl)cc1)(c1ccc(Cl)cc1)c1ccc(Cl)cc1 [Compound 30, tris(4-chlorophenyl)propionamide] | 158 to 160 | 99 | 900 | – | 97 | 272 | – |
| N#CC(c1ccccc1)(c1ccccc1)c1ccccc1F [Compound 32, (2-fluorophenyl)-diphenylacetonitrile] | 144 to 145 | 54 | – | – | 95.7 | 68 | – |
| O=C(O)CC(c1ccccc1)(c1ccccc1)c1ccccc1Cl [Compound 36, 3-(2-chlorophenyl)-3,3-diphenylpropionic acid] | 180 to 182 | 92 | 600 | 3110 | 78.6 | – | – |
| COC(=O)c1ccc(C(O)(c2ccccc2)c2ccccc2)cc1 [Compound 62] | – | 31 | – | – | 98 | 98 | – |
| OC(c1ccccc1)(c1ccccc1)c1cccnc1 [Compound 63] | – | 37 | – | – | 69 | 1020 | – |
| N#CCCC(c1ccccc1)(c1ccccc1)c1ccccc1 [Compound 64, 4,4,4-triphenylbutronitrile] | – | 63 | 5800 | 88 | 100 | – | – |
| O=CCC(c1ccc(Cl)cc1)(c1ccc(Cl)cc1)c1ccc(Cl)cc1 [Compound 65] | – | 99 | 1600 | – | 98 | 435 | – |
| Brc1ccc(C(c2ccccc2)c2ccc(Br)cc2)cc1 [Compound 66] | – | 73 | – | – | 67.2 | 384 | – |
| CCC(c1ccccc1)(c1ccccc1)c1ccc(O)cc1 [Compound 67] | – | 98 | 1400 | 430 | 96.1 | – | – |
| OC(c1ccccc1)(c1ccccc1)c1ccc(C(F)(F)F)cc1 [Compound 68] | – | 98 | 3100 | – | 97.5 | 236 | – |
| O=C(CBr)C(c1ccccc1)(c1ccccc1)c1ccccc1 [Compound 69] | – | 99 | – | 25 | 100 | – | – |
| N#CCc1ccc([Si](c2ccccc2)(c2ccccc2)c2ccccc2)cc1 [Compound 71] | – | 97 | 1100 | – | 0.4 | – | – |
| OCCCC[Si](c1ccccc1)(c1ccccc1)c1ccccc1 [Compound 73] | – | 99 | 2500 | – | 98.9 | 371 | – |

| SMILES | melting point [°C] | inhibition at 10 µM [1] [%] | IC50 [1] [nM] | IC50 [2, 3] [nM] | inhibition at 10 µM [2] [%] | IC50 [2] [nM] | also measured |
| --- | --- | --- | --- | --- | --- | --- | --- |
| O=C(O)CCC(c1ccccc1)(c1ccccc1)c1ccccc1 [Compound 74] | – | 70 | – | 1400 | 97.5 | – | – |
| NC(=O)C(c1ccccc1)(c1ccccc1)c1ccccc1Cl [Compound 75, (2-chlorophenyl)-diphenylacetamide] | 197 to 198.5 | 90 | – | 6 | 98 | – | – |
| NC(=O)CCC(c1ccccc1)(c1ccccc1)c1ccccc1 [Compound 78] | – | 72 | – | 220 | 95 | – | – |
| O=CCC(c1ccccc1)(c1ccccc1)c1ccccc1Cl [Compound 79, 3-(2′-chlorophenyl)-3,3-diphenylpropanal] | 92 to 93 | 99 | 2700 | 83 | 96 | – | – |
| O=C(O)C(c1ccccc1)(c1ccccc1)c1ccccc1Cl [Compound 80] | – | 62 | – | 206 | 97 | – | – |
| COc1ccc(C(O)(c2ccccc2)c2ccccc2Cl)cc1 (stereo not shown) [Compound 81] | – | 53 | – | 187 | 100 | – | – |
| CC(=O)CC(c1ccccc1)(c1ccccc1)c1ccccc1Cl [Compound 82, 4-(2-chlorophenyl)-4,4-diphenyl-2-butanone] | – | 98 | 5000 | 27 | 99.5 | – | – |
| COc1ccc(C(c2ccccc2)c2ccccc2Cl)cc1 (stereo not shown) [Compound 83] | – | 80 | 6400 | 918 | 96.7 | – | – |
| Oc1ccc(C(O)(c2ccccc2)c2ccccc2Cl)cc1 (stereo not drawn) [Compound 84, α-(2-chlorophenyl)-α-(4-hydroxyphenyl)benzyl alcohol] | 56.5 to 60 | 99 | 1000 | – | 95.3 | 1270 | – |
| Oc1ccc(C(c2ccccc2)c2ccccc2Cl)cc1 (stereo not shown) [Compound 85] | – | 91 | 7000 | 739 | 98 | – | – |
| Cc1ccc(C(c2cc(Cl)ccc2N)c2ccccc2Cl)cc1 (stereo not shown) [Compound 86] | – | 99 | 2400 | 237 to 455 | 93.9 | – | – |
| CCOC(=O)C(c1ccccc1)(c1ccccc1)N1CCCCC1 [Compound 87] | – | 96 | 2200 | 68 | 99 | – | – |
| OC(c1ccccc1)(c1ccccc1)C1CCCCC1 [Compound 88, cyclohexyl-diphenylmethanol] | 76 to 78 | 94 | 9500 | 862 | 99 | – | – |
| N#CC(c1ccccc1)(c1ccccc1)C1CCCCC1 [Compound 89, cyclohexyl-diphenylacetonitrile] | 117.5 to 119 | 98 | 900 | 6130 | 70.2 | – | – |
| NC(=O)C(c1ccccc1)(c1ccccc1)C1CCCCC1 [Compound 90, Cyclohexyl-diphenylacetamide] | – | 86 | 3000 | 72 | 98.3 | – | – |
